Literature values as cited in publication PMC5328943 (International journal of pharmaceutics, 2017).
Converted amounts (≈) assume the structure as drawn.

Conditions: with TPGS; ref Yu et al., 1999

## CC(C)CN(C[C@@H](O)[C@H](Cc1ccccc1)NC(=O)O[C@H]1CCOC1)S(=O)(=O)c1ccc(N)cc1 [amprenavir]
  solubility in water: 720 µg/mL (≈ 1420 µM)
